From patent publication US12203909B2, “Compositions for conjugating a sulfonephthalein dye to a substrate” (priority 2018, dated 2025)
Where two headings read alike, the source gives them in different places.

Assays:
[1] = SPD derivative UV-Vis spectral and chemical properties (Table 1); type: physicochemical; details: for λ1, nm (SPD^−1 form): pH sensitive wavelength of SPD^−1
Source text: The HA and A^− concentrations are related by the Henderson-Hasselbalch equation: pH=pKa+log[A^−]/[H—A] where Ka is the acid dissociation constant, pKa is −log Ka, and [A^−] and [HA] are the concentrations of dissociated and undissociated dye acid form, respectively.
Such compounds are commonly used as pH sensitive indicators for determination of pH of aqueous solutions. […] The structure of suitable SPDs and their conjugate bases are shown generically below, and their spectral and chemical properties are reported in Table 1.
Unmodified SPDs have been used for the preparation of pH sensitive indicators adsorbed on the surface of suitable polymeric materials, such as cellulose based materials. […] In general, substitution with electron acceptor substituents (e.g., Cl, Br in the C2/C5 positions) results in a pKa shift to a lower pH range relative to PR, and substitution with electron donor substituents (e.g., C1-C3 alkyl in the C2, C4 and C5 positions) results in a pKa shift to a higher pH range. […] Examples of such SPDs include bromocresol purple and bromothymol blue.
Measurement of absorbance at specific wavelengths allows for the determination of the concentrations of the acidic and basic forms of the dye. These wavelengths are typically selected based upon the absorbance maxima for each specific dye, although other wavelengths can be employed albeit with diminished sensitivity.

[2] = SPD^−1/SPD^−2 transition, cited from earlier work
[3] = UV-Vis spectrum of HPTS as a function of pH, pH response range; type: physicochemical; details: RGB detectors with maximum sensitivity at 460 nm/520 nm/630 nm
Source text: An example of modification of 8-hydroxypyrene-1,3,6-trisulfonic acid as its sodium salt is shown below. The 8-hydroxypyrene-1,3,6-trisulfonic acid can also be modified as a salt of a cation other than sodium, such as potassium or ammonium. This compound is suitable as a pH sensitive probe for pH range of 7.0-8.0 for red, green and blue combination photodiode (RGB) detectors with maximum sensitivity at 460 nm/520 nm/630 nm.
The UV-Vis spectrum of HPTS as a function of pH is shown in FIG. 7, while the pH response range for this dye at 454 nm is shown in FIG. 8.

[4] = pH sensitive wavelength of SPD^−2

Cc1c(C2(c3cc(Br)c(O)c(Br)c3C)OS(=O)(=O)c3ccccc32)cc(Br)c(O)c1Br [Bromocresol Green (BrCrG), Bromocresol Green]
λ1, nm (SPD^−1 form) [1]: 432 nm | λ2, nm (SPD^−2 form) [1, 4]: ~614 nm | pKa* SPD^−1/SPD^−2 [2]: 4.7

Cc1cc(O)ccc1C1(c2ccc(O)cc2C)OS(=O)(=O)c2ccccc21 [m-Cresol Purple (mCrP), m-Cresol Purple]
λ1, nm (SPD^−1 form) [1]: 432 nm | λ2, nm (SPD^−2 form) [1, 4]: 578 nm | pKa* SPD^−1/SPD^−2 [2]: 8.3

Cc1cc(C2(c3cc(C)c(O)c(Br)c3)OS(=O)(=O)c3ccccc32)cc(Br)c1O [Bromocresol Purple (BrCrP), Bromocresol Purple]
λ1, nm (SPD^−1 form) [1]: 432 nm | λ2, nm (SPD^−2 form) [1, 4]: 589 nm | pKa* SPD^−1/SPD^−2 [2]: 6.3

O=S(=O)(O)c1cc(O)c2ccc3c(S(=O)(=O)O)cc(S(=O)(=O)O)c4ccc1c2c34 [8-hydroxypyrene-1,3,6-trisulfonic acid]
pH range for which suitable as pH sensitive probe [3]: 7.0-8.0

O=S1(=O)OC(c2ccc(O)c(Cl)c2)(c2ccc(O)c(Cl)c2)c2ccccc21 [Chlorophenol Red (ClPR), Chlorophenol Red]
λ1, nm (SPD^−1 form) [1]: 436 nm | λ2, nm (SPD^−2 form) [1, 4]: 575 nm | pKa* SPD^−1/SPD^−2 [2]: 6.7

Cc1cc(C2(c3ccc(O)c(C)c3)OS(=O)(=O)c3ccccc32)ccc1O [Cresol Red (CR), Cresol Red]
λ1, nm (SPD^−1 form) [1]: 430 nm

Cc1cc(O)c(C(C)C)cc1C1(c2cc(C(C)C)c(O)cc2C)OS(=O)(=O)c2ccccc21 [Thymol Blue]
λ1, nm (SPD^−1 form) [1]: 432 nm | λ2, nm (SPD^−2 form) [1, 4]: 595 nm | pKa* SPD^−1/SPD^−2 [2]: 8.9

Cc1c(C2(c3cc(C(C)C)c(O)c(Br)c3C)OS(=O)(=O)c3ccccc32)cc(C(C)C)c(O)c1Br [Bromothymol Blue]
λ1, nm (SPD^−1 form) [1]: 427 nm | λ2, nm (SPD^−2 form) [1, 4]: 602 nm | pKa* SPD^−1/SPD^−2 [2]: 7.1

O=S1(=O)OC(c2cc(Br)c(O)c(Br)c2)(c2cc(Br)c(O)c(Br)c2)c2ccccc21 [Bromophenol Blue]
λ1, nm (SPD^−1 form) [1]: 436 nm | λ2, nm (SPD^−2 form) [1, 4]: 591 nm | pKa* SPD^−1/SPD^−2 [2]: 4.1

Cc1cc(C2(c3cc(C)c(O)cc3C)OS(=O)(=O)c3ccccc32)c(C)cc1O [Xylenol Blue]
λ1, nm (SPD^−1 form) [1]: 436 nm | λ2, nm (SPD^−2 form) [1, 4]: 594 nm | pKa* SPD^−1/SPD^−2 [2]: 8.5

Cc1cc(C2(c3cc(C)c(O)c(CN(CC(=O)O)CC(=O)O)c3)OS(=O)(=O)c3ccccc32)cc(CN(CC(=O)O)CC(=O)O)c1O [Xylenol Orange]
λ1, nm (SPD^−1 form) [1]: 436 nm | λ2, nm (SPD^−2 form) [1, 4]: 583 nm | pKa* SPD^−1/SPD^−2 [2]: 6.0-11.7

O=S1(=O)OC(c2ccc(O)cc2)(c2ccc(O)cc2)c2ccccc21 [Phenol Red (PR), Phenol Red]
λ1, nm (SPD^−1 form) [1]: 431 nm | λ2, nm (SPD^−2 form) [1, 4]: 557 nm | λ2, nm (SPD^−2 form) ([1]; pH sensitive wavelength of SPD^−2, listed as PR): approximately 557 nm | pKa (Table 3, PR derivatives): 7.4 | λ1, nm (Table 3, PR derivatives): 431 nm | λ2, nm (Table 3, PR derivatives): 557 nm | λ1^pH 6/pH 9 Abs ratio (calculated as OD 430 nm pH 6.0/OD 430 nm pH 9.0): 5.1 | pKa* SPD^−1/SPD^−2 [2]: 7.4 | pKa* SPD^−1/SPD^−2 ([2]; listed as Phenol red (PR)): approximately 7.4

Cc1c(C2(c3cc(C(C)C)c(O)c(CN(CC(=O)[O-])CC(=O)[O-])c3C)OS(=O)(=O)c3ccccc32)cc(C(C)C)c(O)c1CN(CC(=O)[O-])CC(=O)[O-].[Na+].[Na+].[Na+].[Na+] [Methylthymol Blue]
λ1, nm (SPD^−1 form) [1]: 442 nm | λ2, nm (SPD^−2 form) [1, 4]: 614 nm | pKa* SPD^−1/SPD^−2 [2]: 6.0-13.0
